Where two headings read alike, the source gives them in different places.
Experiments:
[1] = test system: monocytes; test: Immune cell activation in PBMCs with KB cells: monocytes (CD86 on CD14+ cells); type: cell-based, human; conditions: Example 29; PBMCs from two donors with KB cells, two days
Protocol: (§1) This example evaluates the ability of three homogeneous iADCs to stimulate the activation of different immune cell populations (monocyte, B cell, and DCs). Free TLR7 agonists, free hemiasterlin warhead, anti-FolRα-ADC, and the corresponding ISACs were used as controls in the experiment. PBMCs from two healthy donors were isolated using similar protocol as descripted in previous examples. PBMCs were treated with three homogeneous iADC and controls in the presence of FolR1 positive KB cells for two days. The immune cells were then stained with different cell population markers and activation markers. Monocyte activation was indicated as increase of CD86 expression on CD14+ cells. B cell activation was indicated as increase of CD86 expression on CD14-/Lin+/HLA-DR+ cells. Dendritic cells (DC) activation was indicated as increase of CD86 expression on CD14-/Lin-/HLA-DR+/CD123+ cells.

[2] = test system: A549 (FolR1−); test: In vitro cytotoxicity (Cell Titer-Glo, 120 hrs) on A549 cells; type: cell-based; conditions: Homo sapiens, Table 21, Example 28, homogeneous iADCs
Source text: (§2) FOLR1-positive KB or Igrov1 cells, FOLR1-negative A549 cells, Her2 positive SKBR3 cells and Her2 negative MDA-MB-468 cells, Muc16-positive OVCAR3 and Mucl6-negative Skov3 were maintained in Ham's F-12: high glucose DMEM (50:50) (Corning) supplemented with 10% heat-inactivated fetal bovine serum (Corning), 1% Penicillin/Streptomycin (Corning) and 2 mmol/L-glutamax (Thermo Fisher Scientific). Adherent cells were washed twice with PBS, harvested with Acutase and counted by the Vi-CELL cell viability analyzer. A total of 625 cells were seeded in each well of a 384-well flat bottom white polystyrene plate. ADC, ISAC, and iADC conjugates were formulated at 2-fold starting concentration in the cell culture medium and filtered through MultiScreenHTS 96-Well Filter Plates (Millipore; Billerica, Mass.). Serial dilutions of test samples (1:3 serial dilution starting from 100 nM) was added into treatment wells. Assay plates were cultured at 37° C. in a CO2 incubator for 120 hrs before assay. For cell viability measurement, 30 μL of Cell Titer-Glo® reagent (Promega Corp. Madison, Wis.) was added into each well, and plates were processed as per product instructions. Relative luminescence was measured on an ENVISION® plate reader (Perkin-Elmer; Waltham, Mass.). Relative luminescence readings were converted to percent viability using untreated cells as controls. […]

[3] = test system: KB (FolR1+); test: In vitro cytotoxicity (Cell Titer-Glo, 120 hrs) on KB cells; type: cell-based; conditions: Homo sapiens, Table 21, Example 28, homogeneous iADCs
Source text: as §2

[4] = test system: B cells; test: Immune cell activation in PBMCs with KB cells: B cells (CD86 on CD14-/Lin+/HLA-DR+ cells); type: cell-based, human; conditions: Example 29; PBMCs from two donors with KB cells, two days
Protocol: as §1

[5] = test system: Dendritic cells (DC); test: Immune cell activation in PBMCs with KB cells: DCs (CD86 on CD14-/Lin-/HLA-DR+/CD123+ cells); type: cell-based, human; conditions: Example 29; PBMCs from two donors with KB cells, two days
Protocol: as §1

[6] = test system: FolR1 + Igrov1 Cells; test: In vitro cytotoxicity (Cell Titer-Glo, 120 hrs) on Igrov1 cells; type: cell-based
Source text: as §2

[7] = test system: Skov3 (Muc16−); test: In vitro cytotoxicity (Cell Titer-Glo, 120 hrs) on Skov3 cells; type: cell-based; conditions: Homo sapiens, SK-OV-3, Table 7, Experiment #2, read-out: Cell Killing on Skov3 (Muc16−) EC50
Source text: as §2

[8] = test system: MDA-MB-468 (Her2-); test: In vitro cytotoxicity (Cell Titer-Glo, 120 hrs) on MDA-MB-468 cells; type: cell-based; conditions: Homo sapiens, Table 6, Experiment #2, read-out: Cell Killing on MDA-MB-468 (Her2-) EC50
Source text: as §2

[9] = test system: SKBR3 (Her2+); test: In vitro cytotoxicity (Cell Titer-Glo, 120 hrs) on SKBR3 cells; type: cell-based; conditions: Homo sapiens, SK-BR-3, Table 6, Experiment #2, read-out: Cell Killing on SKBR3 (Her2+) EC50
Source text: as §2

[10] = test system: monocytes in human PBMCs; test: Monocyte activation (% CD86+ within CD14+) in isolated monocytes or PBMCs co-cultured with FolR1 positive KB cells; type: cell-based; conditions: 48 hr co-culture with FolR1 positive KB cells
Protocol: PBMCs were isolated from human blood donors by Leukosep tube and Nycoprep 1.077 buffer according to the manufacture's recommendation. CD14+ monocytes were isolated by immunomagnetic negative selection from fresh PBMCs (StemCell #19359—EasySep Human Monocyte Isolation Kit). PBMCs and monocytes were cultured in RPMI supplemented with 10% heat-inactivated fetal bovine serum from Hyclone, 1% Penicillin/Streptomycin and 2 mmol/L-glutamax before the assay. On the day of assay, 300,000 of PBMC or 30,000 of monocytes in 40 ul of culture medium were seeded in 96-well cell culture plates. 40 ul of the test articles (formulated at 3× of starting concentration, 1:10 serial dilution) and 40 ul of 10,000 Oregon green stained target cells were then added into the well. The cell mixtures were co-cultured in the presence of test articles and 10 ug/ml LPS-RS for 48 hr. […] Cells were washed, fixed with 2% PFA overnight, and read on the Attune NxT cytometer (Thermo Fisher). […]
PBMCs were isolated from human blood donors by Leukosep tube and Nycoprep 1.077 buffer according to the manufacture's recommendation. […] Cells were washed, fixed with 2% PFA overnight, and read on the Attune NxT cytometer (Thermo Fisher). […]

Structure (SMILES): CCCCCNc1nc(N)nc2ccn(Cc3ccc(CN4CC5(CNCCO5)C4)cc3OC)c12 [Compound 7, 5-(4-((5-oxa-2,8-diazaspiro[3.5]nonan-2-yl)methyl)-2-methoxybenzyl)-N4-pentyl-5H-pyrrolo[3,2-d]pyrimidine-2,4-diamine]
- activation of monocytes, in words [1]: much more potent
- EC50 [2]: > 0.1 µM
- EC50 [3]: > 0.1 µM
- activation of B cells, in words [4]: much more potent
- activation of DCs, in words [5]: much more potent

Structure (SMILES): CCCCc1nc2c(N)nc3ccccc3c2n1Cc1ccc(CN)cc1 [Compound 4]
- EC50 ([6]; Homo sapiens, IGROV-1, 120 h, read-out: Cell Killing on FolR1 + Igrov1 Cells EC50): > 0.1 µM
- EC50 [7]: > 0.1 µM
- EC50 [8]: > 0.1 µM
- EC50 [9]: > 0.1 µM

Structure (SMILES): CCCCc1nc2c(N)nc3ccccc3c2n1OCCCCN [Compound 5]
- EC50 ([6]; Experiment #1, 120 hrs, NK = no cell killing detected): > 0.1 µM

Structure (SMILES): CCCCc1nc2c(N)nc3ccccc3c2n1Cc1ccc(CNC(=O)OCc2ccc(NC(=O)[C@H](CCCNC(N)=O)NC(=O)[C@@H](NC(=O)CCOCCOCCOCCOCCNC(=O)CCC(=O)N3Cc4ccccc4C#Cc4ccccc43)C(C)C)cc2)cc1 [Compound 401]
- monocyte activation, in words [10]: activated monocyte

Reference: patent US11744876B2, “Immunomodulator antibody drug conjugates and uses thereof” (Sutro Biopharma, Inc., priority 2019, dated 2023)
